In experiment [1] the test system is MCF7. Put plainly: Growth inhibition of human MCF7 cells after 48 hrs by SRB assay. The class given is functional. Particulars: MCF7, 48 h. For orientation: In SRB staining, fixed cells bind dye roughly in proportion to their protein.
The test system of experiment [2] is Neisseria gonorrhoeae. Put plainly: Antimicrobial activity against Neisseria gonorrhoeae ATCC 49226 assessed as growth inhibition at 64 ug/mL by NCCLS broth microdilution assay. The class given is functional, organism-based. On the technique in general: Dilution methods test growth across graded concentrations, often in twofold steps.
In experiment [3] the test system is Stenotrophomonas maltophilia. The experiment can be described thus: Antimicrobial activity against Stenotrophomonas maltophilia ATCC 13637 assessed as growth inhibition at 64 ug/mL by NCCLS broth microdilution assay. The class given is functional, organism-based.
Experiment [4] has as its system DU-145. Put plainly: Growth inhibition of human DU145 cells after 48 hrs by SRB assay. The conditions noted are these: DU-145, 48 h. The class given is functional.
Experiment [5] concerns Candida albicans. Put plainly: Antimicrobial activity against Candida albicans ATCC 90028 assessed as growth inhibition at 64 ug/mL by NCCLS broth microdilution assay. The class given is functional, organism-based.
Experiment [6] concerns KM-20L2. Put plainly: Growth inhibition of human KM20L2 cells after 48 hrs by SRB assay. The class given is functional. The conditions noted are these: KM-20L2, 48 h.
For experiment [7], the system named is Staphylococcus aureus. Put plainly: Antimicrobial activity against Staphylococcus aureus ATCC 29213 assessed as growth inhibition at 64 ug/mL by NCCLS broth microdilution assay. The class given is functional, organism-based.
For experiment [8], the system named is Enterobacter cloacae. Put plainly: Antimicrobial activity against Enterobacter cloacae ATCC 13047 assessed as growth inhibition at 64 ug/mL by NCCLS broth microdilution assay. The class given is functional, organism-based.
Experiment [9] has as its system Micrococcus luteus. The experiment can be described thus: Antimicrobial activity against Micrococcus luteus Presque Isle 456 assessed as growth inhibition at 64 ug/mL by NCCLS broth microdilution assay. The class given is functional, organism-based.
For experiment [10], the system named is BXPC-3. Put plainly: Growth inhibition of human BxPC3 cells after 48 hrs by SRB assay. The class given is functional. The conditions noted are these: BXPC-3, 48 h.
The test system of experiment [11] is P388. Put plainly: Growth inhibition of mouse P388 cells after 48 hrs by Z1 Coulter particle counting. The class given is functional. Particulars: P388, 48 h, read-out: ED50 (the source's name).
The test system of experiment [12] is Cryptococcus neoformans. The experiment can be described thus: Antimicrobial activity against Cryptococcus neoformans ATCC 90112 assessed as growth inhibition at 64 ug/mL by NCCLS broth microdilution assay. The class given is functional, organism-based.
The subject of experiment [13] is SF-268. The experiment can be described thus: Growth inhibition of human SF268 cells after 48 hrs by SRB assay. The class given is functional. The conditions noted are these: SF-268, 48 h.
Experiment [14] relates to Streptococcus pneumoniae. The experiment can be described thus: Antimicrobial activity against Streptococcus pneumoniae ATCC 6303 assessed as growth inhibition at 64 ug/mL by NCCLS broth microdilution assay. The class given is functional, organism-based.
The subject of experiment [15] is Escherichia coli. The experiment can be described thus: Antimicrobial activity against Escherichia coli ATCC 25922 assessed as growth inhibition at 64 ug/mL by NCCLS broth microdilution assay. The class given is functional, organism-based.
Experiment [16] concerns Enterococcus faecalis. Put plainly: Antimicrobial activity against Enterococcus faecalis ATCC 29212 assessed as growth inhibition at 64 ug/mL by NCCLS broth microdilution assay. The class given is functional, organism-based.
Experiment [17] deals with NCI-H460. Put plainly: Growth inhibition of human NCI-H460 cells after 48 hrs by SRB assay. Particulars: NCI-H460, 48 h. The class given is functional.
The subject of experiment [18] is Enterococcus faecalis. Put plainly: Antimicrobial activity against Enterococcus faecalis ATCC 29212 by NCCLS broth microdilution assay. The class given is functional.
For experiment [19], the system named is Staphylococcus aureus. Put plainly: Antimicrobial activity against Staphylococcus aureus ATCC 29213 by NCCLS broth microdilution assay. The class given is functional.
The subject of experiment [20] is Micrococcus luteus. Put plainly: Antimicrobial activity against Micrococcus luteus Presque Isle 456 by NCCLS broth microdilution assay. The class given is functional.
For experiment [21], the system named is Neisseria gonorrhoeae. The experiment can be described thus: Antimicrobial activity against Neisseria gonorrhoeae ATCC 49226 by NCCLS broth microdilution assay. The class given is functional.
In experiment [22] the test system is Streptococcus pneumoniae. Put plainly: Antimicrobial activity against Streptococcus pneumoniae ATCC 6303 by NCCLS broth microdilution assay. The class given is functional.
Experiment [23] deals with Candida albicans. The experiment can be described thus: Antimicrobial activity against Candida albicans ATCC 90028 by NCCLS broth microdilution assay. The class given is functional.
The subject of experiment [24] is Stenotrophomonas maltophilia. The experiment can be described thus: Antimicrobial activity against Stenotrophomonas maltophilia ATCC 13637 by NCCLS broth microdilution assay. The class given is functional.
The subject of experiment [25] is Enterobacter cloacae. The experiment can be described thus: Antimicrobial activity against Enterobacter cloacae ATCC 13047 by NCCLS broth microdilution assay. The class given is functional.
The subject of experiment [26] is Cryptococcus neoformans. The experiment can be described thus: Antimicrobial activity against Cryptococcus neoformans ATCC 90112 by NCCLS broth microdilution assay. The class given is functional.
Experiment [27] relates to Escherichia coli. The experiment can be described thus: Antimicrobial activity against Escherichia coli ATCC 25922 by NCCLS broth microdilution assay. The class given is functional.

pEC50: −log10 of the molar value. In brackets after ≈: the same amount, converted by molar mass. Activity calls are given as the source filed them. No cut-off for these calls is given here.

For the compound `CNc1ncnc(N)c1N(C=O)C/C=C(\C)CC[C@]1(C)[C@@H](C)CC[C@@]2(C)C(COC(=O)c3ccc[nH]3)=CCC[C@@H]12`, the GI50 (commonly the concentration at which growth is held to half of that of the control) in experiment [1] came to 3.1 µM; in experiment [4], 4.6 µM; in experiment [6] it was 2.9 µM; in [10], 4 µM; in experiment [13], 3.1 µM; in experiment [17], 3.6 µM. For the same compound, the “growth inhibition (GI)” value in [2], in experiment [3], in experiment [5], in experiment [7], in experiment [8] and in [9] was “inactive” throughout. The “growth inhibition (GI)” value in experiment [12], in experiment [14], in [15] and in experiment [16] was “inactive” each time. The pEC50 in experiment [11] is under 4.74.
For `CNc1ncnc(N)c1N(C=O)C/C=C(\C)CC/C=C(\C)CC[C@@]1(C)C(C)=CCC[C@@H]1C`, the GI50 in [1] was 5.9 µM; in experiment [4], 6.8 µM; in [6] it was 7.1 µM; in experiment [10] it was 5.9 µM; in experiment [13], 3.9 µM; in experiment [17], 6.8 µM. Also, the “growth inhibition (GI)” value in experiment [3], in [5], in experiment [8], in experiment [12] and in [15] was “inactive” in each case. Besides, the MIC (usually the lowest concentration that inhibits growth of the organism) came out at 8 µg/mL (≈ 18.2 µM) in experiment [18]; 8 µg/mL (≈ 18.2 µM) in [19]; 4 µg/mL (≈ 9.1 µM) in experiment [20]; 16 µg/mL (≈ 36.4 µM) in [21]; 32 µg/mL (≈ 72.8 µM) in experiment [22]. Further, the pEC50 in experiment [11] is 4.80.
Regarding `CC1=CCC[C@H](C)[C@@]1(C)CC/C(C)=C/CC/C(C)=C/Cn1c[n+](C)c2ncnc(N)c21.[Cl-]` [AGELINE A], the GI50 amounted to 3.9 µM in experiment [1]; 4.2 µM in [4]; 3.5 µM in experiment [6]; 3.5 µM in experiment [10]; 3.5 µM in experiment [13]; 3.7 µM in experiment [17]. For the same compound, the MIC in experiment [23] is 4 µg/mL; in experiment [18] it was 2 µg/mL; in experiment [24], 16 µg/mL; in experiment [19], 2 µg/mL; in experiment [20] it was under 0.5 µg/mL; in [21], 2 µg/mL. Further, the MIC came to 32 µg/mL in [25], 2 µg/mL in [26], 16 µg/mL in experiment [22] and 32 µg/mL in [27]. Moreover, the pEC50 in experiment [11] was under 4.66.
As to `CNc1ncnc(N)c1N(C=O)C/C=C(\C)CC[C@]1(C)[C@@H](C)CC[C@@]2(C)C(C)=CCC[C@@H]12` [AXISTATIN 1], the GI50 in experiment [1] is 5.7 µM; in [4], 4.8 µM; in experiment [6], 4.1 µM; in experiment [10] it was 4.8 µM; in [13], 3.6 µM; in experiment [17], 4.6 µM. Also, the “growth inhibition (GI)” value in experiment [3], in [5], in experiment [8] and in experiment [15] was “inactive” throughout. For the same compound, the MIC turned out to be 1 µg/mL (≈ 2.27 µM) in [18]; 1 µg/mL (≈ 2.27 µM) in [19]; 1 µg/mL (≈ 2.27 µM) in [20]; 1 µg/mL (≈ 2.27 µM) in experiment [21]; 1 µg/mL (≈ 2.27 µM) in experiment [26]; 8 µg/mL (≈ 18.2 µM) in experiment [22]. Besides, the pEC50 in experiment [11] was 4.70.
As to `CNc1ncnc(N)c1N(C=O)C/C=C(\C)CC[C@@]1(C)[C@H](C)CC[C@@]2(C)C(C)=CCC[C@H]12` [AXISTATIN 2], the GI50 in experiment [1] came to 6.8 µM; in [4] it was 5 µM; in experiment [6], 4.1 µM; in experiment [10], 5.5 µM; in [13], 3.9 µM; in experiment [17] it was 4.3 µM. For the same compound, the “growth inhibition (GI)” value in [3], in [5], in experiment [8] and in experiment [15] was “inactive” each time. Further, the MIC came to 1 µg/mL (≈ 2.27 µM) in experiment [18]; 1 µg/mL (≈ 2.27 µM) in experiment [19]; 1 µg/mL (≈ 2.27 µM) in experiment [20]; 2 µg/mL (≈ 4.55 µM) in [21]; 2 µg/mL (≈ 4.55 µM) in experiment [26]; 8 µg/mL (≈ 18.2 µM) in [22]. Further, in experiment [11], the pEC50 was under 4.64.
On to `CNc1ncnc(NC(C)C)c1N(C=O)C/C=C(\C)CC/C=C(\C)CC[C@@]1(C)C(C)=CCC[C@@H]1C` [AXISTATIN 3], for which the 50% growth inhibitory concentration (GI50) in experiment [1] is 5.8 µM; in experiment [4] it was 7.5 µM; in experiment [6], 6.9 µM; in [10] it was 6 µM; in experiment [13], 3.5 µM; in experiment [17], 5.4 µM. Also, the “growth inhibition (GI)” value in experiment [3], in experiment [5], in [8] and in experiment [15] was “inactive” each time. For the same compound, the MIC in [18] came to 8 µg/mL (≈ 16.6 µM); in [19], 4 µg/mL (≈ 8.3 µM); in experiment [20] it was 8 µg/mL (≈ 16.6 µM); in experiment [21], 8 µg/mL (≈ 16.6 µM); in experiment [26], 8 µg/mL (≈ 16.6 µM); in [22], 32 µg/mL (≈ 66.4 µM). The pEC50 in experiment [11] was 5.05.

Source of the values: ChEMBL document CHEMBL2331138, “Isolation and structures of axistatins 1-3 from the Republic of Palau marine sponge Agelas axifera Hentschel ” (2013).
